According to ChEMBL document CHEMBL5038659, “Discovery of the First Examples of Threonine Tyrosine Kinase PROTAC Degraders” (J Med Chem, 2022):
Active and inactive are the calls of the source. No cut-off for these calls is given here.

Tests used:
[1] = molecular target: T1, Protein cereblon/Dual specificity protein kinase TTK (Homo sapiens, UniProt P33981+Q96SW2); experiment: In vivo protac activity at CRBN/TTK in human COLO-205 cells xenografted in CB17-SCID mouse at 10 to 20 mg/kg, ip daily for 16 days by western blotting analysis; format: organism-based; conditions: dose 10-20 mg/kg, time 16.0 day
Target sequence in this assay (Q96SW2 whole entry, looked up, one chain of several): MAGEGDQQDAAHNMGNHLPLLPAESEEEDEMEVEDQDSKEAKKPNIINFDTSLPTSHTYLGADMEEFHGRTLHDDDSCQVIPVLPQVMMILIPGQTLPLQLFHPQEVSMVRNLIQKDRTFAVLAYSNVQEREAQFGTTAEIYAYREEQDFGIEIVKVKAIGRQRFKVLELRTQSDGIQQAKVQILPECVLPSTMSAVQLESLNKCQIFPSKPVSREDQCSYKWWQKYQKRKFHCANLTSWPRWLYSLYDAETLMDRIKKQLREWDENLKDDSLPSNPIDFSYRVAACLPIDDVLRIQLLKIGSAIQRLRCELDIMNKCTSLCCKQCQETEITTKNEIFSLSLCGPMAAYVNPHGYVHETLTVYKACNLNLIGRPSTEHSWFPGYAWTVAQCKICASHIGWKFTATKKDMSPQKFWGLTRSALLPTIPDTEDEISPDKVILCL

[2] = molecular target: T1, Protein cereblon/Dual specificity protein kinase TTK; experiment: Protac activity at CRBN/TTK in human […] cells assessed as degradation of TTK measured at […] for 6 hrs by Western blotting analysis; format: cell-based; conditions: dose lower 5.0 µM
Target sequence in this assay (Q96SW2 whole entry, looked up, one chain of several): as above

[3] = Half life in Sprague-Dawley rat at 10 mg/kg, ip by LC-MS/MS analysis; format: ADME, organism-based; conditions: in vivo
[4] = system: HCT-8; experiment: Antiproliferative against human HCT-8 cells assessed as cell viability at 0.0001 to 100 uM at day 4 by CCK-8 assay; format: functional, cell-based; conditions: dose 0.0001-100 µM
[5] = molecular target: T1, Protein cereblon/Dual specificity protein kinase TTK; experiment: Protac activity at CRBN/TTK in human HCT-116 cells assessed as degradation of TTK measured after 6 hrs by Western blotting analysis; format: cell-based
Target sequence in this assay (Q96SW2 whole entry, one chain of several): as the sequence (Q96SW2 whole entry, looked up, one chain of several) above

[6] = system: COLO 205; experiment: Antitumor activity against human COLO205 cells xenografted in CB17-SCID mouse assessed as tumor growth inhibition at 20 mg/kg, ip daily for 16 days relative to control; format: functional; conditions: COLO 205, ip, 384 h, time 16 day, read-out: TGI
[7] = system: COLO 205; experiment: Antitumor activity against human COLO205 cells xenografted in CB17-SCID mouse assessed as tumor growth inhibition at 10 mg/kg, ip daily for 16 days relative to control; format: functional, organism-based; conditions: time 16.0 day
[8] = molecular target: T1, Protein cereblon/Dual specificity protein kinase TTK; experiment: Protac activity at CRBN/TTK in human COLO 205 cells assessed as induction of TTK degradation at 5 nM after 16 hrs post washout by Western blot analysis; format: cell-based
Target sequence in this assay (Q96SW2 whole entry, looked up, one chain of several): as above

[9] = Toxicity in CB17-SCID mouse xenografted with human […] cells assessed as effect on body weight at 10 to 20 mg/kg, ip daily for 16 days; format: organism-based, COLO 205; conditions: in vivo, 384 h, dose 10-20 mg/kg, time 16 day
[10] = molecular target: T1, Protein cereblon/Dual specificity protein kinase TTK; experiment: Protac activity at CRBN/TTK in human COLO 205 cells assessed as degradation of TTK measured after 6 hrs by Western blotting analysis; format: cell-based
Target sequence in this assay (Q96SW2 whole entry, one chain of several): as the sequence (Q96SW2 whole entry, looked up, one chain of several) above

[11] = system: COLO 205; experiment: Antiproliferative against human COLO 205 cells assessed as cell viability after 4 days by CCK-8 assay; format: functional, cell-based; conditions: COLO 205, 96 h
[12] = molecular target: T1, Protein cereblon/Dual specificity protein kinase TTK; experiment: Protac activity at CRBN/TTK in human COLO 205 cells assessed as TTK degradation by measuring maximum degradation after 6 hrs by Western blotting analysis relative to control; format: cell-based
Target sequence in this assay (Q96SW2 whole entry, looked up, one chain of several): as above

[13] = molecular target: T1, Protein cereblon/Dual specificity protein kinase TTK; experiment: Protac activity at CRBN/TTK in human HCT-116 cells assessed as TTK degradation by measuring maximum degradation after 6 hrs by Western blotting analysis relative to control; format: cell-based
Target sequence in this assay (Q96SW2 whole entry, looked up, one chain of several): as above

[14] = molecular target: T1, Protein cereblon/Dual specificity protein kinase TTK; experiment: Protac activity at CRBN/TTK in human COLO 205 cells assessed as induction of TTK degradation in presence of MG132 incubated for 1 hr by Western blotting analysis relative to control; format: cell-based
Target sequence in this assay (Q96SW2 whole entry, looked up, one chain of several): as above

[15] = system: LoVo; experiment: Antiproliferative against human LoVo cells assessed as cell viability at 0.0001 to 100 uM at day 4 by CCK-8 assay; format: functional, cell-based; conditions: dose 0.0001-100 µM
[16] = molecular target: T1, Protein cereblon/Dual specificity protein kinase TTK; experiment: Protac activity at CRBN/TTK in human LoVo cells assessed as degradation of TTK measured at […] for 6 hrs by Western blotting analysis; format: cell-based; conditions: dose lower 5.0 µM
[17] = molecular target: T1, Protein cereblon/Dual specificity protein kinase TTK; experiment: Protac activity at CRBN/TTK in human COLO 205 cells assessed as induction of TTK degradation at 5 nM after 6 to 8 hrs post washout by Western blot analysis; format: cell-based; conditions: time 6-8 hrs
[18] = molecular target: T1, Protein cereblon/Dual specificity protein kinase TTK; experiment: Protac activity at CRBN/TTK in human HCT-8 cells assessed as degradation of TTK measured at […] for 6 hrs by Western blotting analysis; format: cell-based; conditions: dose lower 5.0 µM
[19] = AUC in Sprague-Dawley rat at 10 mg/kg, ip by LC-MS/MS analysis; format: ADME, organism-based; parameters: dose 10 mg/kg; conditions: in vivo
[20] = molecular target: T1, Protein cereblon/Dual specificity protein kinase TTK; experiment: Protac activity at CRBN/TTK in human COLO 205 cells assessed as induction of TTK degradation in presence of N-[4-[2-[2-methoxy-4-(4-methylpiperazin-1-yl)anilino]-5-methyl-7-oxo-pyrido[2,3-d]pyrimidin-8-yl]cyclohexyl]propanamide after 6 hrs by Western blotting relative to control; format: cell-based
[21] = system: HCT-29; experiment: Antiproliferative against human […] cells assessed as cell viability at 0.0001 to 100 uM at day 4 by CCK-8 assay; format: functional, cell-based; conditions: dose 0.0001-100 µM
[22] = molecular target: T2, Dual specificity protein kinase TTK (Homo sapiens, UniProt P33981); experiment: Binding affinity to human TTK expressed in bacterial expression system assessed as dissociation constant at 100 nM by biochemical assay
T2 sequence (P33981 whole entry): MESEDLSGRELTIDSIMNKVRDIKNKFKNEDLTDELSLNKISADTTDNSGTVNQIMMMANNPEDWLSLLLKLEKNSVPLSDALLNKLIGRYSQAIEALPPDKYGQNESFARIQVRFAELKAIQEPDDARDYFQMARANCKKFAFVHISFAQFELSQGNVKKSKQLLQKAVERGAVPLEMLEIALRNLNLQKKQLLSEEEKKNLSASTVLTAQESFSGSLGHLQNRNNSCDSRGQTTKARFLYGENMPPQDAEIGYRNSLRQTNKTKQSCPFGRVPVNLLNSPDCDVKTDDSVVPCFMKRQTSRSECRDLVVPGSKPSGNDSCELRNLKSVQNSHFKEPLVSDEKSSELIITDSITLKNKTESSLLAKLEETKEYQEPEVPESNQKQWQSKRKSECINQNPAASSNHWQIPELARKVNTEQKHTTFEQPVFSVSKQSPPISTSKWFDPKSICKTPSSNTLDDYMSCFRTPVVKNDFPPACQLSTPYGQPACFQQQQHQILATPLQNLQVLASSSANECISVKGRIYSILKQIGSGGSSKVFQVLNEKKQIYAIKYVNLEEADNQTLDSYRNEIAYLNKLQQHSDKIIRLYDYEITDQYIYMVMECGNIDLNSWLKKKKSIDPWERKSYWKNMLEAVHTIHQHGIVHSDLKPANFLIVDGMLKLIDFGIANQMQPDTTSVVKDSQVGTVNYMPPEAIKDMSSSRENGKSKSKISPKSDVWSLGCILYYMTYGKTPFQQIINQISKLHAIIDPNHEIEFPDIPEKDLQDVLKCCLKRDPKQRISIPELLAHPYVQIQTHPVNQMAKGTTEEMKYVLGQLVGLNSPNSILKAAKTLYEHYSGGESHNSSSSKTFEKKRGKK

| SMILES | Activity [1] | Activity [2] | half-life [3] [h] | Activity [4] | DC50 [5] [nM] | inhibition in vivo at 20 mg/kg [6] [%] | Activity [7] | Activity [8] | Activity [9] | DC50 [10] [nM] | IC50 [11] [nM] | Emax [12] [%] | Emax [13] [%] | Activity [14] | Activity [15] | Activity [16] | Activity [17] | Activity [18] | AUC [19] [ng·h/mL] | Activity [20] | further results |
| --- | --- | --- | --- | --- | --- | --- | --- | --- | --- | --- | --- | --- | --- | --- | --- | --- | --- | --- | --- | --- | --- |
| CCC(=O)N[C@H]1CC[C@@H](n2c(=O)cc(C)c3cnc(Nc4ccc(N5CCN(C(=O)CCCC#Cc6ccc7c(c6)CN(C6CCC(=O)NC6=O)C7=O)CC5)cc4OC)nc32)CC1 (some centres undefined) | Active | Dose-Dependent Effect | 4.3 | Dose-Dependent Effect | 5.8 | 46 | inactive | inactive | Non-Toxic | 1.7 | 100 | 88 | 80 | inactive | Dose-Dependent Effect | Dose-Dependent Effect | Active | Dose-Dependent Effect | 2240 | inactive | Activity [21]: Dose-Dependent Effect |
| CCC(=O)N[C@H]1CC[C@@H](n2c(=O)cc(C)c3cnc(Nc4ccc(N5CCN(C(=O)CCCCCC#Cc6ccc7c(c6)C(=O)N(C6CCC(=O)NC6=O)C7)CC5)cc4OC)nc32)CC1 (some centres undefined) | Active | Dose-Dependent Effect | 3.2 | Dose-Dependent Effect | 12.4 | 36.7 | inactive | inactive | Non-Toxic | 3.1 | 200 | 82 | 77 | inactive | Dose-Dependent Effect | Dose-Dependent Effect | Active | Dose-Dependent Effect | 2330 | inactive | Activity [21]: Dose-Dependent Effect |
| CCC(=O)N[C@H]1CC[C@@H](n2c(=O)cc(C)c3cnc(Nc4ccc(N5CCN(C)CC5)cc4OC)nc32)CC1 |  |  |  |  |  |  |  |  |  |  | 800 |  |  |  |  |  |  |  |  |  | Kd [22]: 0.7 nM |
